In test [1] the target is T1, ERRγ (Homo sapiens, UniProt P62508).
T1 construct: expressed in transfected cells; host or cells: HEK293
T1 sequence (P62508 1-458): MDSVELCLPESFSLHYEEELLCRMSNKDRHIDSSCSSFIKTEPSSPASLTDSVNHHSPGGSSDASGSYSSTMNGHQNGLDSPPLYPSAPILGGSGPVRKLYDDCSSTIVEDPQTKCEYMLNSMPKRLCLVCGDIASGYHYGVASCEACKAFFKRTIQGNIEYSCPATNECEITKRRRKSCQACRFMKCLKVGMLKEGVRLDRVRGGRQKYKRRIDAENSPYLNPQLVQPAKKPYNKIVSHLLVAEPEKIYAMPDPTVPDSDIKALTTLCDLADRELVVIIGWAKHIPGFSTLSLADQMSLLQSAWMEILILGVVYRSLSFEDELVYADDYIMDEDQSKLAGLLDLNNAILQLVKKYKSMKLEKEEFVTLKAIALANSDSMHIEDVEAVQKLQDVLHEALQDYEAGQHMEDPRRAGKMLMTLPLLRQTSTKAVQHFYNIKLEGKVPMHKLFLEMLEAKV
The experiment in a line: ERRE luciferase reporter assay in HEK293 cells transfected with pcDNA3.1 ERRγ. The conditions noted are these: 24 hours treatment, luciferase activity. The format is cell-based. Further details: key to EC50 (ERRγ): ***<1 μM; **1-5 μM; *>5 μM; i.a. (inactive). The procedure: (§1) HEK293 cells were maintained in Dulbecco's modified Eagles medium (DMEM) supplemented with 10% fetal bovine serum at 37° C. under 5% CO2. […] Cells were transfected with ERRE reporter construct and pcDNA3.1 ERRα or ERRγ. Twenty-four-hours post-transfection, the cells were treated with vehicle or compound (various concentrations) for 24 hours (4 wells per dose). Luciferase activity was measured using the One-Glo Tox luciferase reporter assay system (Promega) and […] were calculated using GraphPad Prism software.

Test [2] concerns the target T2, ERRα (Homo sapiens, UniProt P11474).
T2 construct: expressed in transfected cells; host or cells: HEK293
T2 sequence (P11474 1-423): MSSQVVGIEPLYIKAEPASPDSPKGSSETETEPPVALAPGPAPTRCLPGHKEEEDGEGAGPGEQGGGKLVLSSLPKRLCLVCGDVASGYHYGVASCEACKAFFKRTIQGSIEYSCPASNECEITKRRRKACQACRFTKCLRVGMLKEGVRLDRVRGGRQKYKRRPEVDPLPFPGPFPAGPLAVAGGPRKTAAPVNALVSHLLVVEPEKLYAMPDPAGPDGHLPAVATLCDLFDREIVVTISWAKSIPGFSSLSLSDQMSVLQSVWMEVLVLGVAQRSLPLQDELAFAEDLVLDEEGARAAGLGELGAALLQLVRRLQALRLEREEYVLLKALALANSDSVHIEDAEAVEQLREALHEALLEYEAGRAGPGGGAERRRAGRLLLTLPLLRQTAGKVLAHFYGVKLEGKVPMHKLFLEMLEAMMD
As to the kind of experiment: ERRE luciferase reporter assay in HEK293 cells transfected with pcDNA3.1 ERRα. The conditions noted are these: 24 hours treatment, luciferase activity. Further details: key to EC50 (ERRα): ***<1 μM; **1-5 μM; *>5 μM; i.a. (inactive). Format: cell-based. The procedure:
as §1
(Reporter assays use an easily measured gene product as a stand-in for the process of interest.)

Consider `Oc1ccccc1C1CC(c2ccc(F)cc2)=NN1` (stereo not drawn) [Entry 46, 2-(3-(4-Fluorophenyl)-4,5-dihydro-1H-pyrazol-5-yl)phenol], for which the results for the EC50 in test [1] and in test [2] were more than 5000 nM and 1000 to 5000 nM, respectively.
The like results for `Nc1ccccc1C1CC(c2ccccc2)=NN1` (stereo not drawn) [Entry 37, 2-(3-Phenyl-4,5-dihydro-1H-pyrazol-5-yl)aniline] were, in that order, less than 1000 nM and less than 1000 nM.
As for `FC(F)(F)c1ccc(C2=NNC(c3ccc4ccccc4c3)C2)cc1` (stereo not drawn) [Entry 72, 5-(naphthalen-2-yl)-3-(4-(trifluoromethyl)phenyl)-4,5-dihydro-1H-pyrazole], the “EC50 (ERRγ)” value in test [1] is on record as “i.a”. Further, the “EC50 (ERRα)” value in test [2] is reported as “i.a”.
As for `FC(F)(F)c1cc(C2=NNC(c3ccc(Cl)cc3)C2)cc(C(F)(F)F)c1` (stereo not drawn) [Entry 68, 3-(3,5-bis(trifluoromethyl)phenyl)-5-(4-chlorophenyl)-4,5-dihydro-1H-pyrazole], the “EC50 (ERRγ)” value in test [1] is “i.a”. In test [2], the “EC50 (ERRα)” value is “i.a”.
As for `Oc1c(Br)cc(Br)cc1C1CC(c2cc(Br)cc(Br)c2)=NN1` (stereo not drawn) [Entry 43, 2,4-Dibromo-6-(3-(3,5-dibromophenyl)-4,5-dihydro-1H-pyrazol-5-yl)phenol], the “EC50 (ERRγ)” value in test [1] is recorded as “i.a”. Also, the “EC50 (ERRα)” value in test [2] is given as “i.a”.
`CC(=O)N1N=C(c2ccccc2Cl)CC1c1ccccc1O` (stereo not drawn) [Entry 16, 1-(3-(2-Chlorophenyl)-5-(2-hydroxyphenyl)-4,5-dihydro-1H-pyrazol-1-yl)ethan-1-one]: in test [1], the “EC50 (ERRγ)” value is “i.a”. Besides, the “EC50 (ERRα)” value in test [2] was “i.a”.
`Oc1ccccc1C1CC(c2ccc(Br)cc2)=NN1` (stereo not drawn) [Entry 24, 2-(3-(4-Bromophenyl)-4,5-dihydro-1H-pyrazol-5-yl)phenol]: the concentration giving a half-maximal response (EC50) in test [1] and in test [2] was less than 1000 nM in each case.
For `Oc1ccccc1C1CC(c2cccnc2)=NN1` (stereo not drawn) [Entry 26, 2-(3-(Pyridin-3-yl)-4,5-dihydro-1H-pyrazol-5-yl)phenol], the EC50 in test [1] and in test [2] was more than 5000 nM in each case.
As to `COc1ccccc1C1=NNC(c2cccc(Cl)c2O)C1` (stereo not drawn) [Entry 60, 2-chloro-6-(3-(2-methoxyphenyl)-4,5-dihydro-1H-pyrazol-5-yl)phenol], the “EC50 (ERRγ)” value in test [1] is given as “i.a”. Also, the “EC50 (ERRα)” value in test [2] is given as “i.a”.
As to `Oc1c(Br)cccc1C1CC(c2ccc(Br)cc2)=NN1` (stereo not drawn) [Entry 35, 2-Bromo-6-(3-(4-bromophenyl)-4,5-dihydro-1H-pyrazol-5-yl)phenol], the EC50 in test [1] and in test [2] was 1000 to 5000 nM each time.
`Oc1ccccc1C1=NNC(c2ccc(Br)cc2O)C1` (stereo not drawn) [Entry 120, 5-bromo-2-(3-(2-hydroxyphenyl)-4,5-dihydro-1H-pyrazol-5-yl)phenol]: the EC50 in test [1] and in test [2] was more than 5000 nM each time.
Turning to `Oc1cc(Br)ccc1C1CC(c2ccc(C(F)(F)F)cc2)=NN1` (stereo not drawn) [Entry 119, 5-bromo-2-(3-(4-(trifluoromethyl)phenyl)-4,5-dihydro-1H-pyrazol-5-yl)phenol], the “EC50 (ERRγ)” value in test [1] is recorded as “i.a”. The “EC50 (ERRα)” value in test [2] is reported as “i.a”.
On to `Clc1ccc(C2=NNC(c3ccc(Br)cc3)C2)cc1` (stereo not drawn) [Entry 112, 5-(4-bromophenyl)-3-(4-chlorophenyl)-4,5-dihydro-1H-pyrazole], for which, in test [1], the “EC50 (ERRγ)” value is “i.a”. The “EC50 (ERRα)” value in test [2] is on record as “i.a”.
With `Oc1cccc(C2CC(c3cc(C(F)(F)F)cc(C(F)(F)F)c3)=NN2)c1` (stereo not drawn) [Entry 5, 3-(3-(3,5-bis(trifluoromethyl)phenyl)-4,5-dihydro-1H-pyrazol-5-yl)phenol], the “EC50 (ERRγ)” value in test [1] is on record as “i.a”. Further, the “EC50 (ERRα)” value in test [2] is listed as “i.a”.
Consider `CC(=O)N1N=C(c2ccc(Br)cc2)CC1c1ccccc1O` (stereo not drawn) [Entry 12, 1-(3-(4-Bromophenyl)-5-(2-hydroxyphenyl)-4,5-dihydro-1H-pyrazol-1-yl)ethan-1-one], for which, in test [1], the “EC50 (ERRγ)” value is listed as “i.a”. For the same compound, in test [2], the “EC50 (ERRα)” value is reported as “i.a”.
For `FC(F)(F)c1ccc(C2=NNC(c3ccccc3)C2)cc1` (stereo not drawn) [Entry 75, 5-phenyl-3-(4-(trifluoromethyl)phenyl)-4,5-dihydro-1H-pyrazole], the EC50 in test [1] and in test [2] was 1000 to 5000 nM throughout.
On to `Oc1c(F)cccc1C1CC(c2ccc(Br)cc2)=NN1` (stereo not drawn) [Entry 32, 2-(3-(4-Bromophenyl)-4,5-dihydro-1H-pyrazol-5-yl)-6-fluorophenol], for which the “EC50 (ERRγ)” value in test [1] is given as “i.a”. Moreover, in test [2], the “EC50 (ERRα)” value is listed as “i.a”.
As to `Clc1ccc(C2=NNC(c3ccc4ccccc4c3)C2)cc1` (stereo not drawn) [Entry 104, 3-(4-chlorophenyl)-5-(naphthalen-2-yl)-4,5-dihydro-1H-pyrazole], the “EC50 (ERRγ)” value in test [1] is reported as “i.a”. For the same compound, the “EC50 (ERRα)” value in test [2] was “i.a”.
Regarding `Oc1ccccc1C1CC(c2cccc(OC(F)(F)F)c2)=NN1` (stereo not drawn) [Entry 1, o-[3-(m-Trifluoromethoxy-phenyl)-2-pyrazolin-5-yl]phenol], the “EC50 (ERRγ)” value in test [1] is on record as “i.a”. Besides, the EC50 (usually the concentration that produces a half-maximal response) in test [2] is more than 5000 nM.
As for `Oc1c(Br)cc(Br)cc1C1CC(c2ccc3ccccc3c2)=NN1` (stereo not drawn) [Entry 116, 2,4-dibromo-6-(3-(naphthalen-2-yl)-4,5-dihydro-1H-pyrazol-5-yl)phenol], the “EC50 (ERRγ)” value in test [1] is reported as “i.a”. Also, the “EC50 (ERRα)” value in test [2] is “i.a”.
For `CC(=O)N1N=C(c2cccc(C)c2)CC1c1ccccc1O` (stereo not drawn) [Entry 14, 1-(5-(2-Hydroxyphenyl)-3-(m-tolyl)-4,5-dihydro-1H-pyrazol-1-yl)ethan-1-one], the “EC50 (ERRγ)” value in test [1] was “i.a”. In addition, the “EC50 (ERRα)” value in test [2] is listed as “i.a”.
Take `Fc1ccccc1C1=NNC(c2ccc3ccccc3c2)C1` (stereo not drawn) [Entry 106, 3-(2-fluorophenyl)-5-(naphthalen-2-yl)-4,5-dihydro-1H-pyrazole]: the EC50 in test [1] and in test [2] was less than 1000 nM each time.
As for `Oc1cccc(C2=NNC(c3cccc(O)c3)C2)c1` (stereo not drawn) [Entry 3, 3,3′-(4,5-dihydro-1H-pyrazole-3,5-diyl)diphenol], the EC50 in test [1] and in test [2] was 1000 to 5000 nM in each case.
Consider `Oc1cccc(C2CC(c3ccc(Cl)cc3)=NN2)c1` (stereo not drawn) [Entry 10, 3-(3-(4-Chlorophenyl)-4,5-dihydro-1H-pyrazol-5-yl)phenol], for which the EC50 in test [1] is less than 1000 nM; in test [2], 1000 to 5000 nM.
Take `Cc1ccccc1C1=NNC(c2ccccc2O)C1` (stereo not drawn) [Entry 27, 2-(3-(o-Tolyl)-4,5-dihydro-1H-pyrazol-5-yl)phenol]: the “EC50 (ERRγ)” value in test [1] was “i.a”. In addition, the “EC50 (ERRα)” value in test [2] is recorded as “i.a”.
For `Oc1ccccc1C1CC(c2ccccc2F)=NN1` (stereo not drawn) [Entry 54, 2-(3-(2-Fluorophenyl)-4,5-dihydro-1H-pyrazol-5-yl)phenol], the EC50 in test [1] is more than 5000 nM; in test [2], 1000 to 5000 nM.
Consider `FC(F)(F)c1cc(C2=NNC(c3ccc4ccccc4c3)C2)cc(C(F)(F)F)c1` (stereo not drawn) [Entry 20, 3-(3,5-bis(trifluoromethyl)phenyl)-5-(naphthalen-2-yl)-4,5-dihydro-1H-pyrazole], for which, in test [1], the “EC50 (ERRγ)” value is reported as “i.a”. Also, in test [2], the “EC50 (ERRα)” value is recorded as “i.a”.
As for `COc1ccc(C2=NNC(c3ccccc3O)C2)cc1` (stereo not drawn) [Entry 42, 2-(3-(4-Methoxyphenyl)-4,5-dihydro-1H-pyrazol-5-yl)phenol], the EC50 in test [1] and in test [2] was less than 1000 nM in each case.
On to `Cc1ccc(O)c(C2CC(c3ccccc3)=NN2)c1` (stereo not drawn) [Entry 39, 4-Methyl-2-(3-phenyl-4,5-dihydro-1H-pyrazol-5-yl)phenol], for which the 50% effective concentration (EC50) in test [1] and in test [2] was less than 1000 nM in each case.
Regarding `Oc1ccc(C2CC(c3cccc(O)c3)=NN2)cc1` (stereo not drawn) [Entry 100, 3-(5-(4-hydroxyphenyl)-4,5-dihydro-1H-pyrazol-3-yl)phenol], the concentration for a half-maximal effect (EC50) in test [1] and in test [2] was 1000 to 5000 nM throughout.
Regarding `Oc1ccccc1C1CC(c2ccccc2C(F)(F)F)=NN1` (stereo not drawn) [Entry 103, 2-(3-(2-(trifluoromethyl)phenyl)-4,5-dihydro-1H-pyrazol-5-yl)phenol], the “EC50 (ERRγ)” value in test [1] is given as “i.a”. Also, the “EC50 (ERRα)” value in test [2] is “i.a”.
With `Oc1ccccc1C1CC(c2ccc(OC(F)(F)F)cc2)=NN1` (stereo not drawn) [Entry 41, 2-(3-(4-(Trifluoromethoxy)phenyl)-4,5-dihydro-1H-pyrazol-5-yl)phenol], the concentration for a half-maximal effect (EC50) in test [1] and in test [2] was less than 1000 nM each time.
Consider `Oc1ccccc1C1=NNC(c2c(O)cccc2Cl)C1` (stereo not drawn) [Entry 69, 3-chloro-2-(3-(2-hydroxyphenyl)-4,5-dihydro-1H-pyrazol-5-yl)phenol], for which the “EC50 (ERRγ)” value in test [1] is “i.a”. The “EC50 (ERRα)” value in test [2] is listed as “i.a”.

For the origin of these results see US20260257998A1, “ERR MODULATORS” (University of Health Sciences and Pharmacy in St. Louis, priority 2023, published 2026).
